Test results published in patent publication US8623820B2, “FGF-9 and its use relating to blood vessels” (University of Western Ontario, priority 2008, dated 2014).

Columns and labels:
Sonic Hedgehog signaling = assay: Matrigel plug with cyclopamine, CD31 / SM α-actin immunostaining; type: in vivo, mice; details: FGF-2+FGF-9 plugs with 500 nM cyclopamine
Procedure: FIG. 15A. RT-PCR of human aortic SMCs stimulated with increasing concentrations of recombinant FGF-9 for 24 h. 15B, RT-PCR of human aortic SMCs overexpressing cDNA encoding GFP or FGF-9. 15C, Western Blots of C57/Bl6 dermal fibroblasts pretreated with either DMSO or 500 nM cyclopamine and subsequently stimulated with vehicle or FGF-9 for 24 hr. 15D. Photomicrographs of FGF-2 and FGF-9 containing matrigel plugs with either DMSO or cyclopamine double immunolabeled for CD31 (brown) and sm α-actin (red). E Quantitation of SM α-actin coverage of CD31-positive vessels representative of 6 mice bearing FGF-2 or FGF-2+FGF-9 with either vehicle or 500 nM cyclopamine (79±4 vs 38±4.8, p<0.05).

[1] = tested on: CD31-positive endothelial cell-lined microvessels; assay: Subcutaneous matrigel plug angiogenesis, CD31 immunostaining; type: in vivo, C57/Bl6 mice
Procedure: Matrigel plugs were mixed with either 500 ng/mL FGF-9, 500 ng/mL FGF-2 or 500 ng/mL FGF-2 and 200 ng/mL FGF-9 and subcutaneously injected into 3 month old C57/Bl6 mice. Mice were sacrificed and matrigel plugs were harvested 8 days after implantation and immunostained for CD31 (brown), to identify endothelial cell-lined microvessels.
CD31-positive microvessels immunostained in FIGS. 5B and 5C are quantified.

[2] = tested on: SM α-actin positive cells on CD31 nascent blood vessels; assay: Matrigel plug, SM α-actin coverage of CD31-positive vessels in 200 μm sections; type: in vivo, mice; details: 200 μm thick sections, 8 days after implantation
Source text: Photomicrographs of Matrigel plugs harvested 8 days after implantation, cut into 200 μm thick-sections and immunostained for CD31 (left panel) and SM α-actin (central panel) and quantitation of SM α-actin coverage of CD31-positive vessels.

[3] = tested on: SM α-actin expressing mural cells at nascent microvessels; assay: Matrigel plug, CD31 / SM α-actin immunostaining of 8 μm sections; type: in vivo, C57/Bl6 mice; details: 8 days after implantation
Source text: Photomicrographs of 8 μm-thick sections of Matrigel plugs harvested 8 days after implantation into C57/Bl6 mice and immunostained for CD31 (brown) and smooth muscle α-actin (red) and quantification of the percentage of microvessels supported by smooth muscle (SM) α-actin positive cells.

[4] = tested on: microvessels in matrigel plug; assay: Intravital vasoreactivity of matrigel plug microvessels; type: in vivo, mice; details: 14 days after matrigel injection
Procedure: 14 days after matrigel injection mice were anesthetized, the skin overlying a matrigel was surgically removed and a catheter to deliver drugs was sutured in the region of the plug. FITC-labeled dextran was injected via tail vein and the diameter of vessels in the matrigel plug was visualized using an inverted fluorescent microscope. Doses of vasoconstrictors indicated in FIG. 9 were applied and images of vessels were acquired over 5 minutes.
In separate experiments, doses of the vasoconstrictor PE followed by the vasodilator were applied to the blood vessels in matrigel plugs.

CC1=C2C[C@H]3[C@@H](CC=C4C[C@@H](O)CC[C@@]43C)[C@@H]2CC[C@]12O[C@@H]1C[C@H](C)CN[C@H]1[C@H]2C [cyclopamine]
SM α-actin coverage of CD31-positive vessels (Sonic Hedgehog signaling): 38±4.8

FGF-2: fibroblast growth factor 2, angiogenic polypeptide used as comparator and co-factor
area of CD31-positive microvessels ([1]; matrigel plugs, 8 days after implantation): equivalent levels of angiogenesis | angiogenesis, CD31 immunoreactivity inside the matrigel ([1]; plugs with 500 ng/mL FGF-9, 500 ng/mL FGF-2 or 500 ng/mL FGF-2 and 200 ng/mL FGF-9, harvested 8 days after implantation): induce angiogenesis | SM α-actin positive cell coverage of CD31 nascent blood vessels [2]: 7.2±1.8% | percentage of microvessels supported by smooth muscle (SM) α-actin positive cells [3]: 37±5.4% | constriction of microvessels in response to phenylephrine (PE) and KCl [4]: mild if any response
